According to ChEMBL document CHEMBL1122254, “Sulfonyliminoimidazolidines. A new class of oral hypoglycemic agents. 1. 1-[[p-[2-(acylamino)ethyl]phenyl]sulfonyl]-2-iminoimidazolidines” (1983):

What was measured:
Type in all cases: functional
Rattus norvegicus [1] = test: Hypoglycemic activity by lowering blood glucose in normal rats by 20% after oral administration.
Rattus norvegicus [2] = test: Hypoglycemic activity by lowering blood glucose in normal rats by 50% after oral administration.
Rattus norvegicus [3] = test: Hypoglycemic activity by lowering blood glucose in streptozotocin-diabetic rats by 20% after oral administration.
Rattus norvegicus [4] = test: Compound evaluated for hypoglycemic activity by lowering blood glucose in streptozotocin-diabetic rats by 20% after oral administration (highest dose tested)
Rattus norvegicus [5] = test: Compound evaluated for hypoglycemic activity by lowering blood glucose in streptozotocin-diabetic rats by 20% after oral administration; Inactive(less than 10% blood sugar decrease)
Rattus norvegicus [6] = test: Compound evaluated for hypoglycemic activity by lowering blood glucose in streptozotocin-diabetic rats by 20% after oral administration
Rattus norvegicus [7] = test: Compound evaluated for hypoglycemic activity by lowering blood glucose in normal rats by 50% after oral administration (highest dose tested)

For `N=C1N(C2CCCCC2)CCN1S(=O)(=O)c1ccc(CCNC(=O)CCC2CCC2)cc1`, the ED20 (Rattus norvegicus [1]) was 0.052 mmol/kg and the ED50 (Rattus norvegicus [2]) was 200 µmol/kg.

`CCCCNC(=O)NCCc1ccc(S(=O)(=O)N2CCN(C3CCCCC3)C2=N)cc1` was tested, and the ED20 (Rattus norvegicus [1]) was 0.067 mmol/kg and the ED50 (Rattus norvegicus [2]) was 330 µmol/kg.

With `CCCCN(C)C(=O)NCCc1ccc(S(=O)(=O)N2CCN(C3CCCCC3)C2=N)cc1` the ED20 (Rattus norvegicus [1]) was 0.054 mmol/kg and the ED50 (Rattus norvegicus [2]) was 320 µmol/kg.

`C/C=C(/C)C(=O)NCCc1ccc(S(=O)(=O)N2CCN(C3CCCCC3)C2=N)cc1` gave an ED20 (Rattus norvegicus [1]) of 0.0035 mmol/kg and an ED50 (Rattus norvegicus [2]) of 17 µmol/kg.

Compound `C/C=C/C(=O)NCCc1ccc(S(=O)(=O)N2CCN(C3CCCCC3)C2=N)cc1` has an ED20 (Rattus norvegicus [3]) of 0.18 mmol/kg, an ED20 (Rattus norvegicus [1]) of 0.0028 mmol/kg and an ED50 (Rattus norvegicus [2]) of 9.6 µmol/kg.

Work on `N=C1N(C2CCCCC2)CCN1S(=O)(=O)c1ccc(CCNC(=O)C2CC=CCC2)cc1` (stereo not drawn) yielded an ED20 (Rattus norvegicus [3]) of 0.39 mmol/kg, an ED20 (Rattus norvegicus [1]) of 0.0044 mmol/kg and an ED50 (Rattus norvegicus [2]) of 15 µmol/kg.

Work on `COc1ccc(C(=O)NCCc2ccc(S(=O)(=O)N3CCN(C4CCCCC4)C3=N)cc2)cc1` yielded an ED20 (Rattus norvegicus [1]) of 0.064 mmol/kg and an ED50 (Rattus norvegicus [2]) of 830 µmol/kg.

In the case of `CCCCC(=O)NCCc1ccc(S(=O)(=O)N2CCN(C3CCCCC3)C2=N)cc1`, the ED20 (Rattus norvegicus [1]) is reported as 0.035 mmol/kg and the ED50 (Rattus norvegicus [2]) is reported as 120 µmol/kg.

For `N=C1N(C2CCCCC2)CCN1S(=O)(=O)c1ccc(CCNC(=O)c2cnccn2)cc1`, the ED20 (Rattus norvegicus [1]) was 0.12 mmol/kg, the ED20 (Rattus norvegicus [4]) was greater than 0.22 mmol/kg and the ED50 (Rattus norvegicus [2]) was 480 µmol/kg.

Work on `N=C1N(C2CCCCC2)CCN1S(=O)(=O)c1ccc(CCNC(=O)C(N)c2ccccc2)cc1` (stereo not drawn) yielded an ED20 (Rattus norvegicus [1]) of 0.029 mmol/kg, an ED20 (Rattus norvegicus [5]) greater than 0.18 mmol/kg and an ED50 (Rattus norvegicus [2]) of 76 µmol/kg.

In the case of `CCS(=O)(=O)CC(=O)NCCc1ccc(S(=O)(=O)N2CCN(C3CCCCC3)C2=N)cc1`, the ED20 (Rattus norvegicus [1]) is reported as 0.11 mmol/kg, the ED50 (Rattus norvegicus [2]) is reported as 530 µmol/kg and the ED20 (Rattus norvegicus [6]) is reported as 0.83 mmol/kg.

In the case of `N=C1N(C2CCCCC2)CCN1S(=O)(=O)c1ccc(CCNC(=S)NC2CCCC2)cc1`, the ED20 (Rattus norvegicus [1]) is reported as 0.05 mmol/kg and the ED50 (Rattus norvegicus [2]) is reported as 210 µmol/kg.

In the case of `N=C1N(C2CCCCC2)CCN1S(=O)(=O)c1ccc(CCNC(=O)/C=C/c2ccccc2)cc1`, the ED20 (Rattus norvegicus [1]) is reported as 0.11 mmol/kg and the ED50 (Rattus norvegicus [7]) is reported as greater than 630 µmol/kg.

Work on `CCCC/N=C(\S)NCCc1ccc(S(=O)(=O)N2CCN(C3CCCCC3)C2=N)cc1` yielded an ED20 (Rattus norvegicus [1]) of 0.015 mmol/kg and an ED50 (Rattus norvegicus [2]) of 210 µmol/kg.

In the case of `N=C1N(C2CCCCC2)CCN1S(=O)(=O)c1ccc(CCNC(=O)Nc2ccccc2)cc1`, the ED20 (Rattus norvegicus [1]) is reported as 0.85 mmol/kg.

`CCC/C=C/C(=O)NCCc1ccc(S(=O)(=O)N2CCN(C3CCCCC3)C2=N)cc1` was tested, and the ED20 (Rattus norvegicus [3]) was 0.81 mmol/kg, the ED20 (Rattus norvegicus [1]) was 0.009 mmol/kg and the ED50 (Rattus norvegicus [2]) was 22 µmol/kg.

With `CC/N=C(\S)NCCc1ccc(S(=O)(=O)N2CCN(C3CCCCC3)C2=N)cc1` the ED20 (Rattus norvegicus [1]) was 0.016 mmol/kg and the ED50 (Rattus norvegicus [2]) was 140 µmol/kg.

With `C/N=C(\S)NCCc1ccc(S(=O)(=O)N2CCN(C3CCCCC3)C2=N)cc1` the ED20 (Rattus norvegicus [1]) was 0.031 mmol/kg and the ED50 (Rattus norvegicus [2]) was 240 µmol/kg.

In the case of `CCC(CC)C(=O)NCCc1ccc(S(=O)(=O)N2CCN(C3CCCCC3)C2=N)cc1`, the ED20 (Rattus norvegicus [1]) is reported as 0.098 mmol/kg and the ED50 (Rattus norvegicus [7]) is reported as greater than 890 µmol/kg.

`CC1(C(=O)NCCc2ccc(S(=O)(=O)N3CCN(C4CCCCC4)C3=N)cc2)CC=CCC1` (stereo not drawn) was tested, and the ED20 (Rattus norvegicus [1]) was 0.053 mmol/kg and the ED50 (Rattus norvegicus [2]) was 170 µmol/kg.

Work on `N=C1N(C2CCCCC2)CCN1S(=O)(=O)c1ccc(CCNC(=O)c2ccco2)cc1` yielded an ED20 (Rattus norvegicus [3]) of 0.22 mmol/kg, an ED20 (Rattus norvegicus [1]) of 0.013 mmol/kg and an ED50 (Rattus norvegicus [2]) of 160 µmol/kg.

`N=C1N(C2CCCCC2)CCN1S(=O)(=O)c1ccc(CCNC(=O)c2ccccc2Cl)cc1` was tested, and the ED20 (Rattus norvegicus [1]) was 0.023 mmol/kg and the ED50 (Rattus norvegicus [2]) was 230 µmol/kg.

For `N=C1N(C2CCCCC2)CCN1S(=O)(=O)c1ccc(CCNC(=O)c2cccs2)cc1`, the ED20 (Rattus norvegicus [1]) was 0.022 mmol/kg and the ED50 (Rattus norvegicus [2]) was 170 µmol/kg.

In the case of `CC(N)C(=O)NCCc1ccc(S(=O)(=O)N2CCN(C3CCCCC3)C2=N)cc1` (stereo not drawn), the ED20 (Rattus norvegicus [3]) is reported as 0.46 mmol/kg, the ED20 (Rattus norvegicus [1]) is reported as 0.059 mmol/kg and the ED50 (Rattus norvegicus [2]) is reported as 160 µmol/kg.

`CC1=CCC(C(=O)NCCc2ccc(S(=O)(=O)N3CCN(C4CCCCC4)C3=N)cc2)CC1` (stereo not drawn) showed an ED20 (Rattus norvegicus [1]) of 0.11 mmol/kg and an ED50 (Rattus norvegicus [2]) of 910 µmol/kg.

`CC(C)/C=C/C(=O)NCCc1ccc(S(=O)(=O)N2CCN(C3CCCCC3)C2=N)cc1` showed an ED20 (Rattus norvegicus [1]) of 0.0096 mmol/kg and an ED50 (Rattus norvegicus [2]) of 34 µmol/kg.

Work on `C=C(C(=O)NCCc1ccc(S(=O)(=O)N2CCN(C3CCCCC3)C2=N)cc1)c1ccccc1` yielded an ED20 (Rattus norvegicus [3]) of 0.96 mmol/kg, an ED20 (Rattus norvegicus [1]) of 0.014 mmol/kg and an ED50 (Rattus norvegicus [2]) of 48 µmol/kg.

`N=C1N(C2CCCCC2)CCN1S(=O)(=O)c1ccc(CCNC=O)cc1` gave an ED20 (Rattus norvegicus [1]) of 0.053 mmol/kg and an ED50 (Rattus norvegicus [2]) of 260 µmol/kg.

In the case of `N=C1N(C2CCCCC2)CCN1S(=O)(=O)c1ccc(CCNC(=O)c2cncnc2)cc1`, the ED20 (Rattus norvegicus [1]) is reported as 0.2 mmol/kg, the ED20 (Rattus norvegicus [4]) is reported as greater than 0.59 mmol/kg and the ED50 (Rattus norvegicus [7]) is reported as greater than 590 µmol/kg.

`N=C1N(C2CCCCC2)CCN1S(=O)(=O)c1ccc(CCNC(=O)CCNc2ccccc2)cc1` gave an ED20 (Rattus norvegicus [3]) of 0.8 mmol/kg and an ED20 (Rattus norvegicus [1]) of 0.24 mmol/kg.

`CC(Nc1ccccc1)C(=O)NCCc1ccc(S(=O)(=O)N2CCN(C3CCCCC3)C2=N)cc1` (stereo not drawn) gave an ED20 (Rattus norvegicus [3]) of 0.4 mmol/kg, an ED20 (Rattus norvegicus [1]) of 0.06 mmol/kg and an ED50 (Rattus norvegicus [2]) of 200 µmol/kg.

Compound `N=C1N(C2CCCCC2)CCN1S(=O)(=O)c1ccc(CCNC(=O)C2CC2)cc1` has an ED20 (Rattus norvegicus [1]) of 0.034 mmol/kg and an ED50 (Rattus norvegicus [2]) of 150 µmol/kg.

For `N=C1N(C2CCCCC2)CCN1S(=O)(=O)c1ccc(CCNC(=O)CNc2ccccc2)cc1`, the ED20 (Rattus norvegicus [3]) was 0.4 mmol/kg, the ED20 (Rattus norvegicus [1]) was 0.064 mmol/kg and the ED50 (Rattus norvegicus [2]) was 320 µmol/kg.

`CC[S+]([O-])CC(=O)NCCc1ccc(S(=O)(=O)N2CCN(C3CCCCC3)C2=N)cc1` (stereo not drawn) showed an ED20 (Rattus norvegicus [3]) of 0.85 mmol/kg, an ED20 (Rattus norvegicus [1]) of 0.074 mmol/kg and an ED50 (Rattus norvegicus [2]) of 240 µmol/kg.

With `COc1ccc(Cl)cc1C(=O)NCCc1ccc(S(=O)(=O)NC(=O)NC2CCCCC2)cc1` [GLYBURIDE] the ED20 (Rattus norvegicus [1]) was 0.004 mmol/kg, the ED20 (Rattus norvegicus [5]) was greater than 0.5 mmol/kg and the ED50 (Rattus norvegicus [2]) was 20 µmol/kg.
